# In patent publication US20250017888A1, “COMPOUNDS FOR TREATING DISEASES ASSOCIATED WITH HYALURONAN OVERPRODUCTION” (THE ROYAL VETERINARY COLLEGE, priority 2021, published 2025):
# Read-outs that look alike come from different tables or passages of the source.
# Key:
# Assay type in all cases: cell-based
# [1] = system: chondrosarcoma cells (SW1353); assay: Alamar blue staining of chondrosarcoma; details: Homo sapiens
# Protocol: (§1) The hyaluronan synthase activity (Prehm, P. and Schumacher, U., Biochem. Pharmacol. 2004, 68, 1401-1410), the cytotoxicity of the drugs (O'Brien, J. et al., Eur. J. Biochem. 2000, 267, 5421-5426), proteoglycan synthesis rate, hyaluronan (Prehm, P. J. Rheumatol., 2005, 32, 690-696) and proteoglycan (Bjornsson, S. Anal. Biochem. 1993, 210, 282-291) were determined as described. The effect of the prenylflavonoids on the MRP5 export rate was measured with fluorescein diacetate as described (Schulz, T., Schumacher, U., and Prehm, P., J Biol. Chem., 2007, 282, 20999-21004). The determination of the IC50 values on the phosphodiesterase 5 was performed according to the instructions of BPS Bioscience. The culture of bovine chondrocytes in alginate beads and of explants of bovine cartilage was described previously (Deiters, B. and Prehm, P. Arthritis Res. Ther., 2008, 10, R8; Prehm, P. J. Rheumatol. 2005, 32, 690-696). Osteoarthritic reactions were induced in chondrocytes growing in alginate beads by incubation with medium containing 10 ng/ml of II-17 for 6 days, and in cartilage explants with 10 ng/ml of II-17 and 5 ng/ml of II-1α. The supernatants were withdrawn and stored at −20° C. for later analysis. The explants were weighed and extracted with 1 ml of 4 M guanidinium-HCl for 72 hours at 4° C. The proteoglycan concentrations were determined in the extracts.
# Chondrosarcoma cells (SW1353 from the American Type Culture Collection) were grown in Dulbecco's medium supplemented with streptomycin/penicillin (100 units of each/ml), 10% foetal calf serum or in serum free Quantum medium supplemented with streptomycin/penicillin (100 units of each/ml), kanamycin (100 units/ml).
# chondrosarcoma cells [2] = assay: Uptake of flavonoids into chondrosarcoma cells by intracellular fluorescence
# Protocol: Confluent monolayers of chondrosarcoma cells on 96 well microtiter plates were incubated with 100 μM solutions of flavonoids in serum-free Quantum medium. Changes in fluorescence were monitored from the bottom of the wells at excitation and emission wavelengths of 340 nm and 450 nm for xanthohumol and at 440 nm and 530 nm for quercetin, respectively.
# Flavonoids are weakly fluorescent in aqueous buffer, but greatly enhance the fluorescence in the presence of proteins (Sengupta, B. and Sengupta, P. K., Biochem. Biophys. Res. Commun., 2002, 299, 400-403). This property was used to follow the uptake of quercetin and xanthohumol into chondrosarcoma cells.
# [3] = system: hyaluronan export from chondrosarcoma cells; assay: Inhibition of hyaluronan export / production in chondrosarcoma cells; details: for inhibition of hyaluronan export: culture supernatant after 2 days, comparison with parent compound, particularly below 3 μM
# Protocol: as §1
# Chondrosarcoma cells were plated on a 96 well microtiter plate and in the presence of increasing flavonoid concentrations. After 2 days the concentration of hyaluronan was determined in the culture supernatant.
# [4] = Alamar blue toxicity assay (FIG. 1); details: below concentrations of 100 μM
# Protocol: as §1
# The toxicity was determined by the Alamar blue assay.
# chondrosarcoma cells [5] = assay: Inhibition of chondrosarcoma cell growth (Coulter counter); details: cell numbers after 2 days
# Protocol: Chondrosarcoma cells were plated on a 24 well microtiter plate and in the presence of increasing flavonoid concentrations. After 2 days the cells were trypsinized and the cell numbers were determined in a Coulter counter.
# fibroblasts = assay: Alamar blue staining of fibroblasts; details: Fibroblast
# Protocol: as §1
# [6] = system: bovine cartilage explants; assay: Proteoglycan loss from interleukin activated bovine cartilage explants; details: interleukin stimulated, 5 days
# Protocol: Cartilage explants were weighed (average wet weight: 20 mg) incubated in the absence and presence of IL-1 (2 ng/ml) and the inhibitors at various concentrations for 5 days. The tissues were extracted with 1.5 ml of a solution of 4 M guanidinium hydrochloride, 0.1 M ε-aminohexanoid acid, 5 mM benzamidine, 10 mM N-ethylmaleinimide, 0.5 mM phenylmethylsulfonyl fluoride for 3 days at 4° C. The solution was centrifuged for 5 min at 10.000 g and the proteoglycans were determined in the supernatant by the alcian blue method as described (Bjornsson, S., Anal. Biochem., 1993, 210, 282-291).
# Bovine cartilage explants were incubated in the absence and presence of interleukin for stimulation of osteoarthritic reactions and the indicated concentrations of the xanthohumol-betaine (FIG. 6A), xanthohumol-prothiazole (FIG. 6B), quercetin-prothiazole (FIG. 6C), quercetin (FIG. 6D) and xanthohumol (FIG. 6E) for 5 days. The cartilage explants were weighed and the proteoglycan concentrations were determined in the cartilage explants (solid bars) and culture supernatants (open bars).
"uptake into chondrosarcoma cells (intracellular fluorescence) (chondrosarcoma cells [2]; concentration dependence, FIG. 2A)",SMILES,IC50 [1],IC50 [3],toxicity in Alamar blue assay [4],inhibition of chondrosarcoma cell growth (chondrosarcoma cells [5]),uptake into chondrosarcoma cells (intracellular fluorescence) (chondrosarcoma cells [2]),IC50 (fibroblasts),inhibition of proteoglycan loss (protective effect) [6],inhibition of hyaluronan export [3]
did not accumulate inside the cells,"O=c1c(O)c(-c2ccc(O)c(O)c2)oc2cc(O)cc(O)c12 [Quercetin, reference compound]",70 µM,16 µM,not toxic,,,,,
,"CC(=O)S/C=C\N(C=O)CC(=O)Oc1ccc(-c2oc3cc(O)cc(O)c3c(=O)c2O)cc1O [Quercetin-prothiazole, (Z)-2-hydroxy-4-(3,5,7-trihydroxy-4-oxo-4H-chromen-2-yl)phenyl 2-(N-(2-(acetylthio)vinyl)formamido)acetate]",61 µM,8 µM,not toxic,more effective at submicromolar concentrations,taken up in a concentration dependent manner,66 µM,similarly effective,more effective than their parent compound
,"COc1cc(O)c(CC=C(C)C)c(O)c1C(=O)/C=C/c1ccc(OC(=O)CN(C=O)/C=C\SC(C)=O)cc1 [Xanthohumol-prothiazole, 4-((E)-3-(2,4-dihydroxy-6-methoxy-3-(3-methylbut-2-en-1-yl)phenyl)-3-oxoprop-1-en-1-yl)phenyl 2-(N-((Z)-2-(acetylthio)vinyl)formamido)acetate]",69 µM,20 µM,not toxic,more effective at submicromolar concentrations,taken up in a concentration dependent manner,74 µM,similarly effective,more effective than their parent compound
